Source: patent US6387881B1, “Inhibitors and substrates of thrombin” (priority 1992, dated 2002)
“And” between values parts separate entries of the source, which are not always exact repeats. Identical values can stand only once. Like-named read-outs stand apart in the source and are kept apart here.

What was measured:
[1] = system: citrated normal human plasma; test: Activated partial thromboplastin time (APTT) for in vitro samples; type: biochemical
Method: (§1) A volume of 150 μl of citrated (3.2%) normal human plasma was incubated at 37° C. with sample (20 μl) or buffer (20 μl, control) for 1 min. To the solution was added reconstituted “AUTOMATED APTT” (available from Organon Teknika, 0.1 ml). Each solution was activated at 37° C. for 5 min.
(§2) After activation, calcium chloride (0.1 ml, 0.025M, prewarmed at 37° C.) was added and clot detection was timed using a “semiautomated coagulometer” (Nach, Schnicter und Gross).

[2] = target: human α-thrombin (Homo sapiens, UniProt P00734); test: biochemical; type: biochemical; conditions: read-out: Ki
Method: The inhibition of human α-thrombin was determined by the inhibition of the enzyme catalyzed hydrolysis of three different concentrations of the chromogenic substrate S-2238.
200 μl of sample or buffer and 50 μl of S-2238 were incubated at 37° C. for 1 min and 50 μl of human α-thrombin (0.25 NIHu/ml) was added. The initial rate of inhibited and uninhibited reactions were recorded at 405 nm. The increase in optical density was plotted according to the method of Lineweaver and Burke. The Km and apparent Km were determined and Ki was calculated using the relationship: [formula]

[3] = target: T1, bovine thrombin in citrated normal human plasma (Bos taurus, UniProt P00735); test: Plasma thrombin time (TT), in vitro; type: biochemical; conditions: inhibitor concentration that caused a doubling of the thrombin time
T1 construct: freshly prepared bovine thrombin (5 NIHu/ml saline)
Method: (§3) A volume of 150 μl of citrated normal human plasma and 20 μl of buffer or sample were warmed at 37° C. for 1 min. Coagulation was started by adding 150 ul of freshly prepared bovine thrombin (5 NIHu/ml saline) and the coagulation time was recorded on a coagulometer.
(§4) A phosphate buffer, pH 7.8, containing 0.1% bovine serum albumine and 0.02% sodium azide was used. The samples were dissolved in DMSO and diluted with the buffer. When no inhibitor was used DMSO was added to the buffer to the same concentration as that used in the samples. The inhibitor concentrations were plotted against the thrombin times in a semilogarithmic graph from which the inhibitor concentration that caused a doubling (40 sec) of the thrombin time was determined.

[4] = system: bovine thrombin in plasma samples; test: Ex-vivo TT; type: in vivo, New Zealand white rabbits; set-up: key: thrombin (coagulation) time in seconds; conditions: 1 mg/kg i.v. bolus, rabbit
Method: as §3, §4
(§5) Data was obtained as for in-vitro tests, but using plasma samples obtained at 0, 1, 10, 30 and 60 minutes after dosing of 1 mg/kg, i.v. bolus injection in a marginal ear vein in New Zealand white rabbits, which were anaesthetized from a canula in the carotid artery. [drawing 18]

[5] = system: 111indium-labelled platelets; test: Deposition of 111indium-labelled platelets after intravenous dose; type: in vivo, New Zealand white rabbits; conditions: 1 mg/kg i.v. dose
Source text: M. Hero, K. D. Butler, C. […] Peripheral blood pressure was monitored by a pressure sensor in the carotid artery.

[6] = system: plasma samples; test: Ex-vivo APTT; type: in vivo, New Zealand white rabbits; set-up: unit not given here; conditions: 1 mg/kg i.v. bolus, rabbit
Method: as §1, §2, §5

[7] = IC50 with and without incubation (enzyme not given); type: biochemical
[8] = target: T2, Xa (Homo sapiens, UniProt P00742); test: IC50 against Xa; type: biochemical
T2 construct: Plasmin; Xa; Urokinase

[9] = target: Plasmin (Homo sapiens, UniProt P00747); test: IC50 against plasmin; type: biochemical
[10] = Peripheral blood pressure after intravenous dose; type: in vivo, New Zealand white rabbits; conditions: 1 mg/kg i.v. dose
Source text: […] R. May, C. M. Hero, K. D. Butler, C. P. Page, JOURNAL OF PHARMACOLOGICAL METHODS, 24, pp 1-35, 1990. Peripheral blood pressure was monitored by a pressure sensor in the carotid artery.

[11] = system: Kalhikrein; test: IC50 against kallikrein; type: biochemical
[12] = target: Urokinase (Homo sapiens, UniProt P00749); test: IC50 against urokinase; type: biochemical
[13] = human α-thrombin, S-2238, 37° C.
[14] = no incubation, read-out: IC50 No Incubations

T2 sequence (P00742 41-179 limits assumed): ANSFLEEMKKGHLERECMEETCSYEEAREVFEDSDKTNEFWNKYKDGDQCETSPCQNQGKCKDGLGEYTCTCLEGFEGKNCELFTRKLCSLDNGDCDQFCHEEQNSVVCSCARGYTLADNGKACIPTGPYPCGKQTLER
T2 sequence (P00742 235-488 limits assumed): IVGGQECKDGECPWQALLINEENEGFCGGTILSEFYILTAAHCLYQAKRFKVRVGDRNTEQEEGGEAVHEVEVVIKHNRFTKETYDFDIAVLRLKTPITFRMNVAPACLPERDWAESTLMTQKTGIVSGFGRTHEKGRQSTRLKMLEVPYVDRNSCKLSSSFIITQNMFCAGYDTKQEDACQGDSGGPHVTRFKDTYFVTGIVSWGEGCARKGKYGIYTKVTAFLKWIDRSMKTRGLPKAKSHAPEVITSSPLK
Plasmin, sequence (P00747 97-580 limits assumed, species assumed): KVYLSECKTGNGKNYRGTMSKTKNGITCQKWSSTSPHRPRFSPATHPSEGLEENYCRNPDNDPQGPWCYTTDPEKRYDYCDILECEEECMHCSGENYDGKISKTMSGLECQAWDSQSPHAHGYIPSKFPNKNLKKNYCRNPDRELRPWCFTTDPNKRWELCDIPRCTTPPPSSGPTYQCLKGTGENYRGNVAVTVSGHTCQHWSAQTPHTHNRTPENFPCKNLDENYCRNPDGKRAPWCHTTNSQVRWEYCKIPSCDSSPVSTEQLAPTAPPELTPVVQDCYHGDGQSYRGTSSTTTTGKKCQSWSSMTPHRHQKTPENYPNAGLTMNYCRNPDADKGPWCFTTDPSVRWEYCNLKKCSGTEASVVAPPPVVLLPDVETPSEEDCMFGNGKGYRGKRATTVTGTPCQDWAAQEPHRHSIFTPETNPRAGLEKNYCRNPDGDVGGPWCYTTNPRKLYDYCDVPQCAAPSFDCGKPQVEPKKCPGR
Plasmin, sequence (P00747 581-810 limits assumed, species assumed): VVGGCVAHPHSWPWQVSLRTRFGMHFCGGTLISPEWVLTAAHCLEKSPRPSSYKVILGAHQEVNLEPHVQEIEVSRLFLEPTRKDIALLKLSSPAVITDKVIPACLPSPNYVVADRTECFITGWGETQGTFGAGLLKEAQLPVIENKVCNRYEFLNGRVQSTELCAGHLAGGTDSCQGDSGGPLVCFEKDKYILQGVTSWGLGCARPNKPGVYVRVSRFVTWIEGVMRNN

What does the source list for N=C(N)NCCCC(NC(=O)C1CCCN1C(=O)C(N)C(c1ccccc1)c1ccccc1)C(=O)CCC(=O)N1CCCCC1.O=C(O)C(F)(F)F.O=C(O)C(F)(F)F (stereo not drawn) [Compound 7, L,Dpa-Pro-Arg--k--Gly-Pip]?
APTT [1]: 100.0 µM; Ki [2]: 1.7 µM; TT [3]: 7.5 µM

Which results are given for N=C(N)NCCCC(NC(=O)C1CCCN1C(=O)C(N)Cc1ccc2ccccc2c1)C(=O)CCC(=O)N1CCCCC1 [Compound 54, D-β-Nal-Pro-Arg--k--Gly-Pip]?
APTT [1]: 45.0 µM; Ki [2, 13]: 2.87 µM; TT [3]: 5.3 µM

With N=C(N)NCCCC(NC(=O)C1CCCN1C(=O)C(N)C(c1ccccc1)c1ccccc1)C(=O)CCC(=O)N1CCCCC1.O=C(O)C(F)(F)F.O=C(O)C(F)(F)F [Compound 6, D-Dpa-Pro-Arg--k--Gly-Pip] as the compound, how does the “EX-VIVO T.T.” value ([4]; time 0 min) read?
The value was 24.4 and 25.6 and 32.9 and 27.9.

What about the “EX-VIVO T.T.” value ([4]; time 1 min) of the same compound?
Its value is 176 and 200 and 260 and >200.

And the “EX-VIVO T.T.” value ([4]; time 10 min)?
Its value is 55 and 61.4 and 76 and 57.5.

And the “EX-VIVO T.T.” value ([4]; time 30 min)?
The value was 33 and 36.9 and 62 and 36.

And the “EX-VIVO T.T.” value ([4]; time 60 min)?
Its value is 25 and 27.9 and 49 and 31.5.

What about the “APTT” value [1] of the same compound?
The value was 8.0 µM.

What about the “PLATELET ACCUMULATION (% OF NORMAL) LEG” value [5] of the same compound?
Its value is “NONE”.

And the “PLATELET ACCUMULATION (% OF NORMAL) LUNG” value [5]?
The value was “NONE”.

And the “EX-VIVO A.P.T.T.” value ([6]; time 1 min)?
The value was 46 and 78.

What about the “EX-VIVO A.P.T.T.” value ([6]; time 10 min) of the same compound?
The value was 32 and 55.

And the “EX-VIVO A.P.T.T.” value ([6]; time 30 min)?
The value was 34 and 57.

What about the “EX-VIVO A.P.T.T.” value ([6]; time 60 min) of the same compound?
Its value is 27 and 42.

What about the Ki [2] of the same compound?
Its Ki is 0.2 µM.

What about the “TT” value [3] of the same compound?
Its value is 0.65 µM.

And the IC50 [7, 14]?
Its IC50 is 0.2 µM.

What about the IC50 ([8]; single value given, incubation not given, read-out: Xa no inc/inc) of the same compound?
The IC50 was 149 µM.

What about the IC50 ([9]; single value given, incubation not given, read-out: Plasmin no inc/inc) of the same compound?
Its IC50 is greater than 157 µM.

What about the “BLOOD PRESSURE Δ% of NORM” value [10] of the same compound?
Its value is “NONE”.

And the IC50 ([11]; single value given, incubation not given, read-out: Kalhikrein no inc/inc)?
The IC50 was 199 µM.

And the IC50 ([12]; single value given, incubation not given, read-out: Urokinase no inc/inc)?
The IC50 was 494 µM.

What does the source list for COCCCC(NC(=O)[C@@H]1CCCN1C(=O)[C@H](N)C(c1ccccc1)c1ccccc1)P(=O)(Oc1ccccc1)Oc1ccccc1 (stereo partly drawn) [Compound 32, H-D-Dpa-Pro-Mpg^P(OPh)2]?
Ki [2, 13]: 0.0048 µM; TT [3]: 9.1 µM; IC50 [7, 14]: 1.48 µM; IC50 ([7]; with incubation, read-out: IC50 Inc.): 0.00235 µM; IC50 ([8]; no incubation (first value of cell), read-out: Xa no inc): 39.7 µM; IC50 ([8]; with incubation (second value of cell), read-out: Xa inc): > 18.7 µM; IC50 ([9]; no incubation (first value of cell), read-out: Plasmin no inc): > 187 µM; IC50 ([9]; with incubation (second value of cell), read-out: Plasmin inc): 3.32 µM; IC50 ([11]; no incubation (first value of cell), read-out: Kalhikrein no inc): 66.7 µM; IC50 ([11]; with incubation (second value of cell), read-out: Kalhikrein inc): > 18.7 µM; IC50 ([12]; no incubation (first value of cell), read-out: Urokinase no inc): 83 µM; IC50 ([12]; with incubation (second value of cell), read-out: Urokinase inc): > 18.7 µM

With N=C(N)NCCCC(NC(=O)C1CCCN1C(=O)C(N)C(c1ccccc1)c1ccccc1)C(=O)CCC(=O)N1CCCCC1 (mixture of isomers) [Compound 4, D,L-Dpa-Pro-Arg--k--Gly-Pip] as the compound, how does the “APTT” value [1] read?
Its value is 45.0 µM.

And the Ki [2]?
The Ki was 0.6 µM.
